This is an account of results in patent publication US7482338B2 (priority 2003, dated 2009).

The experiment deals with α7 nAChR subtype (Rattus norvegicus, UniProt Q05941). It counts as binding. As to conditions: read-out: KD of radioligand (saturation curve, one site model).
Sequence of α7 nAChR subtype (Q05941 23-502 limits assumed): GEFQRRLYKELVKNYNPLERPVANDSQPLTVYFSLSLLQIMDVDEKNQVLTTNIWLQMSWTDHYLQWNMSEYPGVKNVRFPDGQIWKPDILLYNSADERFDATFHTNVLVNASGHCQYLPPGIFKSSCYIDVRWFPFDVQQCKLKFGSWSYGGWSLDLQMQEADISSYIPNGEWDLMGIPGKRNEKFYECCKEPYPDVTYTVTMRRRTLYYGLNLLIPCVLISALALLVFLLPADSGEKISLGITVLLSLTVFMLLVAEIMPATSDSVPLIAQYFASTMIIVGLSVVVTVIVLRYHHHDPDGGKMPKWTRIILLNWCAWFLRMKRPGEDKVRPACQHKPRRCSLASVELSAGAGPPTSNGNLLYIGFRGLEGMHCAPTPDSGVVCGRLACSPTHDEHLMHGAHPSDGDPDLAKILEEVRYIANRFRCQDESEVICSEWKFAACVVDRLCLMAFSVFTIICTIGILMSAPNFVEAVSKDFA

Take [^125I]-α-Bungarotoxin [[^125I]-α-BTX]: the Kd was 1.67 nM.
